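Here, GI50 denotes the concentration required for 50% inhibition of growth. TGI denotes the concentration required for complete inhibition of growth.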
What was measured:
Assay in all cases: growth of human tumour cells (NCI), 384-well format
CAKI-1 renal = system: CAKI-1 renal
MDA-MB-468 breast = system: MDA-MB-468 breast
OVCAR-5 ovarian = system: OVCAR-5 ovarian
LOX IMVI melanoma = system: LOX IMVI melanoma
SK-OV-3 ovarian = system: SK-OV-3 ovarian
OVCAR-3 ovarian = system: OVCAR-3 ovarian
SF-295 CNS = system: SF-295 CNS
NCI/ADR-RES ovarian = system: NCI/ADR-RES ovarian
IGROV1 ovarian = system: IGROV1 ovarian
M14 melanoma = system: M14 melanoma
SF-539 CNS = system: SF-539 CNS
HL-60(TB) leukemia = system: HL-60(TB) leukemia
NCI-H322M lung = system: NCI-H322M lung
UACC-62 melanoma = system: UACC-62 melanoma
NCI-H460 NSCLC = system: NCI-H460 NSCLC
KM12 colon = system: KM12 colon
SNB-75 CNS = system: SNB-75 CNS
RXF 393 renal = system: RXF 393 renal
K-562 leukemia = system: K-562 leukemia
RPMI-8226 leukemia = system: RPMI-8226 leukemia
MCF7 breast = system: MCF7 breast
DU-145 prostate = system: DU-145 prostate
ACHN renal = system: ACHN renal
HS 578T breast = system: HS 578T breast
A549 NSCLC = system: A549 NSCLC
HOP-92 NSCLC = system: HOP-92 NSCLC
EKVX NSCLC = system: EKVX NSCLC
OVCAR-4 ovarian = system: OVCAR-4 ovarian
SK-MEL-28 melanoma = system: SK-MEL-28 melanoma
SF-268 CNS = system: SF-268 CNS
U251 glioblastoma = system: U251 glioblastoma
OVCAR-8 ovarian = system: OVCAR-8 ovarian
SW-620 colon = system: SW-620 colon
CCRF-CEM leukemia = system: CCRF-CEM leukemia
786-0 renal = system: 786-0 renal
UACC-257 melanoma = system: UACC-257 melanoma
BT-549 breast = system: BT-549 breast
MOLT-4 leukemia = system: MOLT-4 leukemia
UO-31 renal = system: UO-31 renal
COLO 205 colon = system: COLO 205 colon
NCI-H522 lung = system: NCI-H522 lung
SN12C renal = system: SN12C renal
MDA-MB-435 melanoma = system: MDA-MB-435 melanoma
HOP-62 NSCLC = system: HOP-62 NSCLC
NCI-H226 lung = system: NCI-H226 lung
PC-3 prostate = system: PC-3 prostate
SNB-19 CNS = system: SNB-19 CNS
HCC-2998 colon = system: HCC-2998 colon
A498 renal = system: A498 renal
TK-10 renal = system: TK-10 renal
MDA-MB-231 breast = system: MDA-MB-231 breast
HCT-116 colon = system: HCT-116 colon
HCT-15 colon = system: HCT-15 colon
SK-MEL-5 melanoma = system: SK-MEL-5 melanoma
T-47D breast = system: T-47D breast
MALME-3M melanoma = system: MALME-3M melanoma
NCI-H23 lung = system: NCI-H23 lung
HT29 colon = system: HT29 colon

CN[C@@H](C)C(=O)N[C@H](C(=O)N1CCC[C@H]1c1nc(C(=O)c2ccc(F)cc2)cs1)C1CCCCC1
GI50 (CAKI-1 renal): 25.5 µM
TGI (CAKI-1 renal): 48.4 µM
GI50 (MDA-MB-468 breast): 1.86 µM
TGI (MDA-MB-468 breast): 13.8 µM
GI50 (OVCAR-5 ovarian): 23.4 µM
TGI (OVCAR-5 ovarian): 51 µM
GI50 (LOX IMVI melanoma): 16.2 µM
TGI (LOX IMVI melanoma): 29.7 µM
GI50 (SK-OV-3 ovarian): 0.0692 µM
TGI (SK-OV-3 ovarian): 1.58 µM
GI50 (OVCAR-3 ovarian): 11.4 µM
TGI (OVCAR-3 ovarian): 25.2 µM
GI50 (SF-295 CNS): 16.4 µM
TGI (SF-295 CNS): 30.9 µM
GI50 (NCI/ADR-RES ovarian): 17.1 µM
TGI (NCI/ADR-RES ovarian): 34.9 µM
GI50 (IGROV1 ovarian): 21.2 µM
TGI (IGROV1 ovarian): 39.5 µM
GI50 (M14 melanoma): 18.2 µM
TGI (M14 melanoma): 32.2 µM
GI50 (SF-539 CNS): 17.5 µM
TGI (SF-539 CNS): 31.3 µM
GI50 (HL-60(TB) leukemia): 0.612 µM
TGI (HL-60(TB) leukemia): 3 µM
GI50 (NCI-H322M lung): 20.3 µM
TGI (NCI-H322M lung): 51.4 µM
GI50 (UACC-62 melanoma): 18.7 µM
TGI (UACC-62 melanoma): 34.1 µM
GI50 (NCI-H460 NSCLC): 20.2 µM
TGI (NCI-H460 NSCLC): 34.8 µM
GI50 (KM12 colon): 17.3 µM
TGI (KM12 colon): 32.2 µM
GI50 (SNB-75 CNS): 10.1 µM
TGI (SNB-75 CNS): 25.6 µM
GI50 (RXF 393 renal): 0.409 µM
TGI (RXF 393 renal): 11.1 µM
GI50 (K-562 leukemia): 16.8 µM
TGI (K-562 leukemia): 30.5 µM
GI50 (RPMI-8226 leukemia): 6.69 µM
TGI (RPMI-8226 leukemia): 20 µM
GI50 (MCF7 breast): 11.7 µM
TGI (MCF7 breast): 26.1 µM
GI50 (DU-145 prostate): 17.9 µM
TGI (DU-145 prostate): 39.3 µM
GI50 (ACHN renal): 23.3 µM
TGI (ACHN renal): 56.7 µM
GI50 (HS 578T breast): 5.06 µM
TGI (HS 578T breast): 20.8 µM
GI50 (A549 NSCLC): 26.8 µM
TGI (A549 NSCLC): > 100 µM
GI50 (HOP-92 NSCLC): 4.3 µM
TGI (HOP-92 NSCLC): 19 µM
GI50 (EKVX NSCLC): 18.7 µM
TGI (EKVX NSCLC): 41.3 µM
GI50 (OVCAR-4 ovarian): 0.044 µM
TGI (OVCAR-4 ovarian): 0.51 µM
GI50 (SK-MEL-28 melanoma): 16.4 µM
TGI (SK-MEL-28 melanoma): 30 µM
GI50 (SF-268 CNS): 18.5 µM
TGI (SF-268 CNS): 36.9 µM
GI50 (U251 glioblastoma): 15.9 µM
TGI (U251 glioblastoma): 29.7 µM
GI50 (OVCAR-8 ovarian): 10.2 µM
TGI (OVCAR-8 ovarian): 24.1 µM
GI50 (SW-620 colon): 23.9 µM
TGI (SW-620 colon): 47.8 µM
GI50 (CCRF-CEM leukemia): 7.4 µM
TGI (CCRF-CEM leukemia): 20.7 µM
GI50 ([…]-0 renal): 15.8 µM
TGI (786-0 renal): 29.3 µM
GI50 (UACC-257 melanoma): 15.4 µM
TGI (UACC-257 melanoma): 28.8 µM
GI50 (BT-549 breast): 12 µM
TGI (BT-549 breast): 24.4 µM
GI50 (MOLT-4 leukemia): 13.1 µM
TGI (MOLT-4 leukemia): 25.7 µM
GI50 (UO-31 renal): 30 µM
TGI (UO-31 renal): > 100 µM
GI50 (COLO 205 colon): 17.1 µM
TGI (COLO 205 colon): 32.5 µM
GI50 (NCI-H522 lung): 6.47 µM
TGI (NCI-H522 lung): 20.8 µM
GI50 (SN12C renal): 53.8 µM
TGI (SN12C renal): > 100 µM
GI50 (MDA-MB-435 melanoma): 14.1 µM
TGI (MDA-MB-435 melanoma): 33.5 µM
GI50 (HOP-62 NSCLC): 3.25 µM
TGI (HOP-62 NSCLC): 17.6 µM
GI50 (NCI-H226 lung): 21.7 µM
TGI (NCI-H226 lung): 60.5 µM
GI50 (PC-3 prostate): 19.5 µM
TGI (PC-3 prostate): 38.7 µM
GI50 (SNB-19 CNS): 31.8 µM
TGI (SNB-19 CNS): > 100 µM
GI50 (HCC-2998 colon): 14.2 µM
TGI (HCC-2998 colon): 27.4 µM
GI50 (A498 renal): 15.5 µM
TGI (A498 renal): 29.1 µM
GI50 (TK-10 renal): 21.2 µM
TGI (TK-10 renal): 53.3 µM
GI50 (MDA-MB-231 breast): 0.597 µM
TGI (MDA-MB-231 breast): 3.29 µM
GI50 (HCT-116 colon): 18 µM
TGI (HCT-116 colon): 32.3 µM
GI50 (HCT-15 colon): 20.3 µM
TGI (HCT-15 colon): 42 µM
GI50 (SK-MEL-5 melanoma): 10.2 µM
TGI (SK-MEL-5 melanoma): 21.8 µM
GI50 (T-47D breast): 13.1 µM
TGI (T-47D breast): 27.6 µM
GI50 (MALME-3M melanoma): 0.33 µM
TGI (MALME-3M melanoma): 2.99 µM
GI50 (NCI-H23 lung): 13.3 µM
TGI (NCI-H23 lung): 35.2 µM
GI50 (HT29 colon): 17.1 µM
TGI (HT29 colon): 31.1 µM

— PubChem BioAssay (NCI)
